Test results: patent publication US20220241249A1, “PHARMACEUTICAL COMPOSITION AND KIT CONTAINING NOVEL PENAM DERIVATIVE OR SALT THEREOF AND ONE OR MORE COMPOUNDS SELECTED FROM beta-LACTAMASE INHIBITORY COMPOUND AND ANTIBACTERIAL COMPOUND OR SALTS THEREOF” (priority 2019, published 2022)
Read-outs that look alike come from different tables or passages of the source.

What was measured:
Assay type in all cases: cell-based
[1] = system: Escherichia coli TK-3113 strain producing IMP-8 (strain D); assay: MIC of test compound alone or with β-lactamase inhibitor at 4 μg/mL
Experimental: (§1) By using a broth microdilution method, the combinational effect of a test compound and a β-lactamase inhibitor was evaluated.
(§2) The evaluation test for antibacterial activity was performed in the same manner as in Test Example 1.
Escherichia coli TK-3113 strain producing IMP-8 (hereinafter, called strain D),
(§3) An antibacterial activity evaluation test was performed in the same manner as in Test Example 6.
(§4) As the bacterial strain, the strains B, C, and D producing β-lactamase and a Klebsiella pneumoniae Y-1069 strain (hereinafter, called strain F) producing OXA-48 and CTX-M-15 were used.

[2] = system: Klebsiella pneumoniae Y-1020 strain producing KPC-3 and SHV-12 (strain B); assay: as above; details: for MIC: Strain B
Experimental: as §1, §2

[3] = system: Escherichia coli TK-1747 strain producing CTX-M-15 (strain A); assay: as above
Experimental: as §1, §2
Escherichia coli TK-1747 strain producing CTX-M-15 (hereinafter, called strain A),

[4] = system: Escherichia coli TK-1765 strain producing CMY-2 (strain E); assay: as above
Experimental: as §1, §2
Escherichia coli TK-1765 strain producing CMY-2 (hereinafter, called strain E)

[5] = system: Klebsiella pneumoniae Y-1133 strain producing NDM-1, OXA-48, and CTX-M-15 (strain C); assay: as above
Experimental: as §1, §2
Klebsiella pneumoniae Y-1133 strain producing NDM-1, OXA-48, and CTX-M-15 (hereinafter, called strain C),
as §3, §4

[6] = system: AmpC-derepressed Pseudomonas aeruginosa mutant strain (S-3028); assay: Antibacterial activity evaluation test, MIC by broth microdilution (CLSI); details: Pseudomonas aeruginosa S-3028
Method in brief: (§5)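 Cells scraped from overnight Mueller Hinton agar are brought to 0.5 McFarland density, then diluted tenfold. This inoculum is added to cation-adjusted medium with compound and cultured 16 to 20 hours at 35° C. before growth is scored by eye.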

[7] = system: VIM-2-containing Pseudomonas aeruginosa strain (S-3779); assay: as above; details: Pseudomonas aeruginosa S-3779
Method in brief: as §5

[8] = system: OXA-48-containing Klebsiella pneumoniae strain (Y-1062); assay: as above; details: Klebsiella pneumoniae Y-1062
Method in brief: as §5

[9] = system: NDM-1-containing Klebsiella pneumoniae strain (Y-1007); assay: as above; details: Klebsiella pneumoniae Y-1007
Method in brief: as §5

[10] = system: GES-19 and GES-20-containing Pseudomonas aeruginosa strain (S-3759); assay: as above; details: Pseudomonas aeruginosa S-3759
Method in brief: as §5

[11] = system: CTX-M-15-containing Escherichia coli strain (TK-1747); assay: as above; details: Escherichia coli TK-1747
Method in brief: as §5

[12] = system: KPC-2-containing Klebsiella pneumoniae strain (Y-995); assay: as above; details: Klebsiella pneumoniae Y-995
Method in brief: as §5

[13] = system: Pseudomonas aeruginosa strain ATCC27853; assay: as above; details: Pseudomonas aeruginosa, ATCC27853
Method in brief: as §5

[14] = system: IMP-1-containing Pseudomonas aeruginosa strain (S-2838); assay: as above; details: Pseudomonas aeruginosa S-2838
Method in brief: as §5

[15] = system: Klebsiella pneumoniae Y-1069 strain producing OXA-48 and CTX-M-15 (strain F); assay: MIC of test compound alone or with β-lactamase inhibitor at 4 μg/mL; details: for MIC: Klebsiella pneumoniae, Strain F
Experimental: as §2, §3, §4

[16] = test compound alone (β-lactamase inhibitor N/A)

For `Nc1nc(/C(=N/OC2(C(=O)O)CC2)C(=O)N[C@@H]2C(=O)N3C[C@@](C(=O)O)(N4CCN(NC(=O)C(=O)c5ccc(O)c(O)c5Cl)C4=O)S[C@H]23)cs1` [Compound E], the MIC ([1]; AVI added at 4 μg/mL) was 0.12 µg/mL, the MIC ([1]; NAC added at 4 μg/mL) was less than 0.015 µg/mL and the MIC ([1]; ZID added at 4 μg/mL) was less than 0.015 µg/mL. It also gave an MIC [1, 16] of 0.25 µg/mL, an MIC ([2]; AVI added at 4 μg/mL) of 0.25 µg/mL and an MIC ([2]; NAC added at 4 μg/mL) of less than 0.015 µg/mL. For the same compound, the MIC ([2]; VAB added at 4 μg/mL) was 1 µg/mL, the MIC ([2]; ZID added at 4 μg/mL) was less than 0.015 µg/mL and the MIC [2, 16] was 4 µg/mL. For the same compound, the “antibacterial activity in combination with a β-lactamase inhibitor versus without” value ([2]; for all the bacterial strains (strains A to E), summary of Tables 43 to 47) was “higher antibacterial activity”, the MIC ([3]; AVI added at 4 μg/mL) was less than 0.015 µg/mL and the MIC ([3]; CVA added at 4 μg/mL) was less than 0.015 µg/mL. It also gave an MIC ([3]; NAC added at 4 μg/mL) of less than 0.015 µg/mL, an MIC ([3]; SBT added at 4 μg/mL) of less than 0.015 µg/mL and an MIC ([3]; TAZ added at 4 μg/mL) of less than 0.015 µg/mL. For the same compound, the MIC ([3]; ZID added at 4 μg/mL) was less than 0.015 µg/mL, the MIC [3, 16] was 0.06 µg/mL and the MIC [4, 16] was 1 µg/mL. The MIC ([4]; with AVI at 4 μg/mL) was 0.06 µg/mL, the MIC ([4]; with SBT at 4 μg/mL) was 0.5 µg/mL and the MIC ([4]; with TAZ at 4 μg/mL) was 0.25 µg/mL. The MIC ([4]; with VAB at 4 μg/mL) was 0.12 µg/mL, the MIC ([5]; AVI added at 4 μg/mL) was 0.12 µg/mL and the MIC ([5]; NAC added at 4 μg/mL) was less than 0.015 µg/mL. The MIC ([5]; ZID added at 4 μg/mL) was less than 0.015 µg/mL and the MIC [5, 16] was 1 µg/mL.
Work on `CC(C)(O/N=C(\C(=O)NC1C(=O)N2C[C@@](C(=O)O)(N3CCN(NC(=O)C(=O)c4c(F)cc(O)c(O)c4Cl)C3=O)S[C@H]12)c1csc(N)n1)C(=O)O` (stereo partly drawn) [Example 143] yielded an Antibacterial activity (MIC) Pseudomonas aeruginosa S-3028 [6] of 0.12 µg/mL, an Antibacterial activity (MIC) Pseudomonas aeruginosa S-3779 [7] of 0.25 µg/mL and an Antibacterial activity (MIC) Klebsiella pneumoniae Y-1062 [8] of 2 µg/mL. It also gave an Antibacterial activity (MIC) Klebsiella pneumoniae Y-1007 [9] of less than 0.06 µg/mL, an Antibacterial activity (MIC) Pseudomonas aeruginosa S-3759 [10] of 1 µg/mL and an Antibacterial activity (MIC) Escherichia coli TK-1747 [11] of 0.12 µg/mL. For the same compound, the Antibacterial activity (MIC) Klebsiella pneumoniae Y-995 [12] was 0.12 µg/mL, the Antibacterial activity (MIC) Pseudomonas aeruginosa ATCC 27853 [13] was 0.5 µg/mL and the Antibacterial activity (MIC) Pseudomonas aeruginosa S-2838 [14] was 0.5 µg/mL. For the same compound, the MIC ([1]; Escherichia coli, test compound alone (β-lactamase inhibitor N/A)) was 0.5 µg/mL, the MIC ([1]; Escherichia coli, with NAC at 4 μg/mL) was less than 0.015 µg/mL and the MIC ([1]; Escherichia coli, with ZID at 4 μg/mL) was less than 0.015 µg/mL. It also gave an MIC ([2]; Klebsiella pneumoniae, test compound alone (β-lactamase inhibitor N/A), read-out: MIC) of 2 µg/mL, an MIC ([2]; Klebsiella pneumoniae, with AVI at 4 μg/mL, read-out: MIC) of 0.5 µg/mL and an MIC ([2]; Klebsiella pneumoniae, with CVA at 4 μg/mL, read-out: MIC) of 1 µg/mL. It also gave an MIC ([2]; Klebsiella pneumoniae, with NAC at 4 μg/mL, read-out: MIC) of 0.03 µg/mL, an MIC ([2]; Klebsiella pneumoniae, with VOB at 4 μg/mL, read-out: MIC) of 1 µg/mL and an MIC ([2]; Klebsiella pneumoniae, with ZID at 4 μg/mL, read-out: MIC) of 0.03 µg/mL. For the same compound, the MIC [15, 16] was 8 µg/mL, the MIC ([15]; with AVI at 4 μg/mL) was 0.25 µg/mL and the MIC ([15]; with CVA at 4 μg/mL) was 4 µg/mL. For the same compound, the MIC ([15]; with NAC at 4 μg/mL) was 0.12 µg/mL, the MIC ([15]; with SBT at 4 μg/mL) was 4 µg/mL and the MIC ([15]; with TAZ at 4 μg/mL) was 4 µg/mL. For the same compound, the MIC ([15]; with ZID at 4 μg/mL) was less than 0.015 µg/mL, the “antibacterial activity in combination with a β-lactamase inhibitor versus without” value ([15]; for all the bacterial strains (strains B, C, D and F), summary of Tables 51 and 52) was “higher antibacterial activity” and the MIC ([5]; Klebsiella pneumoniae, with NAC at 4 μg/mL) was 0.06 µg/mL. For the same compound, the MIC ([5]; Klebsiella pneumoniae, with ZID at 4 μg/mL) was less than 0.015 µg/mL.
With `CC(C)(O/N=C(\C(=O)N[C@@H]1C(=O)N2C[C@@](C(=O)O)(N3CCN(NC(=O)c4c[nH]c5cc(O)c(O)cc5c4=O)C3=O)S[C@H]12)c1csc(N)n1)C(=O)O` [Example 154, (3R,5R,6R)-6-((Z)-2-(2-aminothiazol-4-yl)-2-(((2-carboxypropan-2-yl)oxy)imino)acetamido)-3-(3-(6,7-dihydroxy-4-oxo-1,4-dihydroquinoline-3-carboxamido)-2-oxoimidazolidin-1-yl)-7-oxo-4-thia-1-azabicyclo[3.2.0]heptane-3-carboxylic acid] the Antibacterial activity (MIC) Pseudomonas aeruginosa S-3028 [6] was 0.5 µg/mL, the Antibacterial activity (MIC) Pseudomonas aeruginosa S-3779 [7] was 2 µg/mL and the Antibacterial activity (MIC) Klebsiella pneumoniae Y-1062 [8] was 2 µg/mL. The Antibacterial activity (MIC) Klebsiella pneumoniae Y-1007 [9] was 0.25 µg/mL, the Antibacterial activity (MIC) Pseudomonas aeruginosa S-3759 [10] was 4 µg/mL and the Antibacterial activity (MIC) Escherichia coli TK-1747 [11] was 0.5 µg/mL. For the same compound, the Antibacterial activity (MIC) Klebsiella pneumoniae Y-995 [12] was 0.25 µg/mL, the Antibacterial activity (MIC) Pseudomonas aeruginosa ATCC 27853 [13] was 2 µg/mL and the Antibacterial activity (MIC) Pseudomonas aeruginosa S-2838 [14] was 4 µg/mL.
Compound `CC(C)(O/N=C(\C(=O)NC1C(=O)N2C[C@@](C(=O)O)(N3CCC[C@H](NC(=O)C(=O)c4ccc(O)c(O)c4Cl)C3=O)S[C@H]12)c1csc(N)n1)C(=O)O` (stereo partly drawn) [Example 156] has an Antibacterial activity (MIC) Pseudomonas aeruginosa S-3028 [6] of 0.5 µg/mL, an Antibacterial activity (MIC) Pseudomonas aeruginosa S-3779 [7] of 1 µg/mL and an Antibacterial activity (MIC) Klebsiella pneumoniae Y-1062 [8] of 0.5 µg/mL. The Antibacterial activity (MIC) Klebsiella pneumoniae Y-1007 [9] was less than 0.06 µg/mL, the Antibacterial activity (MIC) Pseudomonas aeruginosa S-3759 [10] was 2 µg/mL and the Antibacterial activity (MIC) Escherichia coli TK-1747 [11] was 0.12 µg/mL. It also gave an Antibacterial activity (MIC) Klebsiella pneumoniae Y-995 [12] of 0.12 µg/mL, an Antibacterial activity (MIC) Pseudomonas aeruginosa ATCC 27853 [13] of 2 µg/mL and an Antibacterial activity (MIC) Pseudomonas aeruginosa S-2838 [14] of 1 µg/mL.
